From patent US8614201B2 (Janssen Pharmaceutica NV, priority 2009, dated 2013) come the findings set out here.

Sequence of Human TRPA1 (O75762 whole entry): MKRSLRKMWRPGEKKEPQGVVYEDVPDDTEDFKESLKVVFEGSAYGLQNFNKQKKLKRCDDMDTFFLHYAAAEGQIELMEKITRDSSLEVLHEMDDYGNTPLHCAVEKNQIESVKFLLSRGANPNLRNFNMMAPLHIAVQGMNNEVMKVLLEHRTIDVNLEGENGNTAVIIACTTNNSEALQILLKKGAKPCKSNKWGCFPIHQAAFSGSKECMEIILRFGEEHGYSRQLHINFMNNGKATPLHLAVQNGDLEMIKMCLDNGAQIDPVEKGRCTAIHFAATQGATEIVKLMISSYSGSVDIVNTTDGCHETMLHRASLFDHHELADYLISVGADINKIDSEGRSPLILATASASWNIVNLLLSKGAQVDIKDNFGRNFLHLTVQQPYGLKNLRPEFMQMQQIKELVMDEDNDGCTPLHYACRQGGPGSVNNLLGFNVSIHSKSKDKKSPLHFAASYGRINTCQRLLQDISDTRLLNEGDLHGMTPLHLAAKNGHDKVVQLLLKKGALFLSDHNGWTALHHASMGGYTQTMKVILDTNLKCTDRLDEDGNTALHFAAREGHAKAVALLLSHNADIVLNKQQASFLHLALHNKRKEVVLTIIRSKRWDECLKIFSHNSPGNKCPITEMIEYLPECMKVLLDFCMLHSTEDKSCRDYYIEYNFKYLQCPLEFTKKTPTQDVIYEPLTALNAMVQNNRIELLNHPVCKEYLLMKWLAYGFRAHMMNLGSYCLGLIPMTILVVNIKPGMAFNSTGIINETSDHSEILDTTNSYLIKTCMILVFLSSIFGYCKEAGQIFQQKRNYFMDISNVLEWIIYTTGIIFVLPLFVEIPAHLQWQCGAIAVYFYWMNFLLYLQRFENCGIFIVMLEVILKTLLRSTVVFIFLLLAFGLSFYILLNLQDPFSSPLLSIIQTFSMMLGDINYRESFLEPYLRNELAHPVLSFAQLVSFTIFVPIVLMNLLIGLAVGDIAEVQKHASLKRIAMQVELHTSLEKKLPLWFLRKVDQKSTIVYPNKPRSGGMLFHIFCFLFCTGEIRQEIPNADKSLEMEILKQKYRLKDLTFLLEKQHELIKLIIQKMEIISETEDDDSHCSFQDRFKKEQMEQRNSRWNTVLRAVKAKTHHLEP

This experiment concerns the target Human TRPA1 (Homo sapiens, UniProt O75762). As to the kind of experiment: Assay 1: In vitro cellular testing of TRPA1 modulation (CHO-TREx, Fluo-3 calcium fluorescence, AITC agonist). It is filed as cell-based. Further details: expressed in transfected cells; host or cells: CHO-TREx cells (Invitrogen), vector pcDNA4/TO. To be noted: CHO-TREx cells expressing human TRPA1; Fluo-3 fluorescence (FLIPR/Tetra); agonist 15 μM allyl isothiocyanate (AITC); 30 minute antagonist incubation. Put shortly: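 Tetracycline-induced CHO-TREx cells stably expressing human TRPA1, loaded with 4 μM Fluo-3 AM, preincubated 30 min with compound (serial dilution typically from 10 μM, three-fold steps) in HEPES saline pH 7.4. Fluorescence change over 3 min after 15 μM AITC; IC50 from Hill fit versus no-antagonist and 10 μM ruthenium red controls.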
`O=C(NCc1cc(-c2ccc(OC(F)(F)F)cc2)ccn1)[C@@H]1C=CCN1S(=O)(=O)c1ccc(F)cc1` [Example 145, 1-(4-Fluoro-benzenesulfonyl)-2,5-dihydro-1H-pyrrole-2S-carboxylic acid [4-(4-trifluoromethoxy-phenyl)-pyridin-2-ylmethyl]-amide]: the IC50 came out at 0.028 µM.

As to `O=C(NCc1cc(-c2ccc(OC(F)(F)F)cc2)ccn1)[C@@H]1C=CCN1S(=O)(=O)c1ccc(Cl)s1` [Example 146, 1-(5-Chloro-thiophene-2-sulfonyl)-2,5-dihydro-1H-pyrrole-2S-carboxylic acid [4-(4-trifluoromethoxy-phenyl)-pyridin-2-ylmethyl]-amide], the IC50 stood at 0.052 µM.

As for `O=C(NCc1cc(-c2ccc(C(F)(F)F)cc2)ncn1)[C@@H]1CCCN1S(=O)(=O)c1ccc(Br)cc1` [Example 147, 1-(4-Bromobenzenesulfonyl)-pyrrolidine-2S-carboxylic acid [6-(4-trifluoromethylphenyl)-pyrimidin-4-ylmethyl]-amide], the IC50 was determined as 0.092 µM.

Regarding `O=C(NCc1cc(-c2ccc(C(F)(F)F)cc2)ncn1)[C@@H]1CCCN1S(=O)(=O)c1ccc(F)c(F)c1` [Example 148, 1-(3,4-Difluorobenzenesulfonyl)-pyrrolidine-2S-carboxylic acid [6-(4-trifluoromethylphenyl)-pyrimidin-4-ylmethyl]-amide], the IC50 worked out at 0.028 µM.

As for `O=C(NCc1cc(-c2ccc(C(F)(F)F)cc2)ncn1)[C@@H]1CCCN1S(=O)(=O)c1ccc(OC(F)(F)F)cc1` [Example 149, 1-(4-Trifluoromethoxybenzenesulfonyl)-pyrrolidine-2S-carboxylic acid [6-(4-trifluoromethylphenyl)-pyrimidin-4-ylmethyl]-amide], the IC50 was 3.65 µM.

Regarding `COc1ccc(S(=O)(=O)N2CCC[C@H]2C(=O)NCc2cc(-c3ccc(C(F)(F)F)cc3)ncn2)cc1` [Example 150, 1-(4-Methoxybenzenesulfonyl)-pyrrolidine-2S-carboxylic acid [6-(4-trifluoromethylphenyl)-pyrimidin-4-ylmethyl]-amide], the IC50 was found to be 0.383 µM.

Consider `O=C(NCc1cc(-c2ccc(C(F)(F)F)cc2)ncn1)[C@@H]1CCCN1S(=O)(=O)c1ccc(Cl)cc1` [Example 152, 1-(4-Chlorobenzenesulfonyl)-pyrrolidine-2S-carboxylic acid [6-(4-trifluoromethyl-Phenyl)-pyrimidin-4-ylmethyl]-amide], for which the IC50 was 0.066 µM.

As to `O=C(NCc1cc(-c2ccc(C(F)(F)F)cc2)ncn1)[C@@H]1CCCN1S(=O)(=O)c1ccccc1F` [Example 153, 1-(2-Fluorobenzenesulfonyl)-pyrrolidine-2S-carboxylic acid [6-(4-trifluoromethylphenyl)-pyrimidin-4-ylmethyl]-amide], the IC50 came out at 0.401 µM.

As for `O=C(NCc1cc(-c2ccc(C(F)(F)F)cc2)ncn1)[C@@H]1CCCN1S(=O)(=O)c1cccc(F)c1` [Example 154, 1-(3-Fluorobenzenesulfonyl)-pyrrolidine-2S-carboxylic acid [6-(4-trifluoromethylphenyl)-pyrimidin-4-ylmethyl]-amide], the IC50 came out at 0.044 µM.

Regarding `Cc1ccccc1S(=O)(=O)N1CCC[C@H]1C(=O)NCc1cc(-c2ccc(C(F)(F)F)cc2)ncn1` [Example 155, 1-(Toluene-2-sulfonyl)-pyrrolidine-2S-carboxylic acid [6-(4-trifluoromethylphenyl)-pyrimidin-4-ylmethyl]-amide], the IC50 is 1.02 µM.

For `Cc1cccc(S(=O)(=O)N2CCC[C@H]2C(=O)NCc2cc(-c3ccc(C(F)(F)F)cc3)ncn2)c1` [Example 156, 1-(Toluene-3-sulfonyl)-pyrrolidine-2S-carboxylic acid [6-(4-trifluoromethylphenyl)-pyrimidin-4-ylmethyl]-amide], the IC50 was 0.388 µM.

Turning to `O=C(NCc1cc(-c2ccc(C(F)(F)F)cc2)ncn1)[C@@H]1CCCN1S(=O)(=O)c1cccc(C(F)(F)F)c1` [Example 157, 1-(3-Trifluoromethylbenzenesulfonyl)-pyrrolidine-2S-carboxylic acid [6-(4-trifluoromethylphenyl)-pyrimidin-4-ylmethyl]-amide], the IC50 was determined as 4.69 µM.

Consider `O=C(NCc1cc(-c2ccc(C(F)(F)F)cc2)ncn1)[C@@H]1CCCN1S(=O)(=O)c1ccc(C(F)(F)F)cc1` [Example 158, 1-(4-Trifluoromethylbenzenesulfonyl)-pyrrolidine-2S-carboxylic acid [6-(4-trifluoromethylphenyl)-pyrimidin-4-ylmethyl]-amide], for which the IC50 stood at 0.587 µM.

Take `N#Cc1ccc(S(=O)(=O)N2CCC[C@H]2C(=O)NCc2cc(-c3ccc(C(F)(F)F)cc3)ncn2)cc1` [Example 159, 1-(4-Cyanobenzenesulfonyl)-pyrrolidine-2S-carboxylic acid [6-(4-trifluoromethylphenyl)-pyrimidin-4-ylmethyl]-amide]: the IC50 was found to be 1.09 µM.

Turning to `O=C(NCc1cc(-c2ccc(C(F)(F)F)cc2)ncn1)[C@@H]1CCCN1S(=O)(=O)c1ccccc1` [Example 160, 1-Benzenesulfonylpyrrolidine-2S-carboxylic acid [6-(4-trifluoromethylphenyl)-pyrimidin-4-ylmethyl]-amide], the IC50 was 0.077 µM.

Take `Cc1ccc(S(=O)(=O)N2CCC[C@H]2C(=O)NCc2cc(-c3ccc(C(F)(F)F)cc3)ncn2)cc1` [Example 161, 1-(Toluene-4-sulfonyl)-pyrrolidine-2S-carboxylic acid [6-(4-trifluoromethylphenyl)-pyrimidin-4-ylmethyl]-amide]: the IC50 turned out to be 0.137 µM.

With `CC(=O)c1ccc(S(=O)(=O)N2CCC[C@H]2C(=O)NCc2cc(-c3ccc(C(F)(F)F)cc3)ncn2)cc1` [Example 162, 1-(4-Acetylbenzenesulfonyl)-pyrrolidine-2S-carboxylic acid [6-(4-trifluoromethylphenyl)-pyrimidin-4-ylmethyl]-amide], the half-maximal inhibitory concentration (IC50) stood at 1.7 µM.

On to `O=C(NCc1cc(-c2ccc(C(F)(F)F)cc2)ncn1)[C@@H]1CCCN1S(=O)(=O)c1ccc([N+](=O)[O-])cc1` [Example 163, 1-(4-Nitrobenzenesulfonyl)-pyrrolidine-2S-carboxylic acid [6-(4-trifluoromethylphenyl)-pyrimidin-4-ylmethyl]-amide], for which the IC50 stood at 0.014 µM.

As to `O=C(NCc1cc(-c2ccc(C(F)(F)F)cc2)ncn1)[C@@H]1CCCN1S(=O)(=O)c1cc(Cl)c(Cl)s1` [Example 165, 1-(4,5-Dichlorothiophene-2-sulfonyl)-pyrrolidine-2S-carboxylic acid [6-(4-trifluoromethylphenyl)-pyrimidin-4-ylmethyl]-amide], the IC50 came to 0.011 µM.

As for `O=C(NCc1cc(-c2ccc(C(F)(F)F)cc2)ncn1)[C@@H]1CCCN1S(=O)(=O)c1ccc(Cl)s1` [Example 166, 1-(5-Chlorothiophene-2-sulfonyl)-pyrrolidine-2S-carboxylic acid [6-(4-trifluoromethylphenyl)-pyrimidin-4-ylmethyl]-amide], the IC50 was found to be 0.014 µM.

For `O=C(NCc1cc(-c2ccc(C(F)(F)F)cc2)ncn1)[C@@H]1CCCN1S(=O)(=O)c1ccco1` [Example 167, 1-(Furan-2-sulfonyl)-pyrrolidine-2S-carboxylic acid [6-(4-trifluoromethylphenyl)-pyrimidin-4-ylmethyl]-amide], the IC50 is 0.063 µM.

As a reminder, the IC50 is the concentration that inhibits the measured activity by half.
